From patent US20240368096A1 (Enanta Pharmaceuticals, Inc., priority 2022, published 2024) come the findings set out here.

The test concerns HBV. As to the kind of experiment: HBV infection in HepG2-NTCP cells (HBeAg AlphaLISA in supernatants). Format: cell-based. To be noted: Hepatitis B virus, 192 h; HBV infection of HepG2-NTCP cells; HBeAg in supernatants at day 8 post infection; read-out: Cellular EC50. The method, then: HepG2-NTCP A3 cells were maintained in DMEM media supplemented with GlutaMAX™ 10% fetal bovine serum, 1% penicillin/streptomycin, and 5 μg/mL puromycin at 37° C. in a humidified atmosphere with 5% CO2 in a collagen-coated tissue culture flask.
HepG2-NTCP cells were seeded in 384 well plate containing 16,000 cells/well two days prior to the infection. On the day of infection, compounds were 3-fold serially diluted in DMSO and pre-incubated with HepG2-NTCP cells for two hours before purified HBV addition. HBV infection was carried out at 2000 GE/cell with 4% PEG, and the final concentration of DMSO is 0.5%. On day one post infection, HBV-containing media was aspirated, cells were washed once with PBS and then maintained in 2.5% DMSO containing media for the remainder of the assay.
Supernatants from infected HepG2-NTCP cells were collected at day 8 post infection, and the amount of viral antigen HBeAg was measured by HBeAg AlphaLISA detection kit (PerkinElmer) following the manufacturer's recommended protocol. Irrespective of readout, compound concentrations that reduce viral product accumulation in supernatants by […] relative to DMSO controls (EC50) are reported. EC50 ranges are as follows: A<0.1 μM; B 0.1-1 μM; C>1 μM.
On to `CN1C(c2cnn(C)c2)CN(c2ccccc2)c2cc(Cl)c(-c3ccc(F)c(C(=O)O)c3)cc2S1(=O)=O` (centres unmarked) [Example 79], for which the EC50 fell in the range of 100 to 1000 nM.

In the case of `CN1[C@H](C2CCCCC2)CN(c2ccccc2)c2cc(OC3CC(C)(C)C3)c(-c3cc(F)c(C(=O)O)s3)cc2S1(=O)=O` [Example 483, (R)-5-(3-cyclohexyl-7-(3,3-dimethylcyclobutoxy)-2-methyl-1,1-dioxido-5-phenyl-2,3,4,5-tetrahydrobenzo[f][1,2,5]thiadiazepin-8-yl)-3-fluorothiophene-2-carboxylic acid], the EC50 is under 100 nM.

In the case of `CN1[C@H](C2CCCCC2)CN(c2cnccn2)c2cc(Cl)c(-c3ccc(F)c(C(=O)O)c3)cc2S1(=O)=O` [Example 289], the EC50 was 100 to 1000 nM.

Regarding `CN1[C@H](CC2CCC2)CN(c2ccccc2)c2cc(Cl)c(-c3ccc(F)c(C(=O)O)c3)cc2S1(=O)=O` [Example 75], the EC50 lay in the range of 100 to 1000 nM.

On to `CN1[C@H](C2CCC2)CN(c2ccccc2)c2cc(OCC(F)(F)F)c(-c3ccc(F)c(C(=O)O)c3)cc2S1(=O)=O` [Example 464], for which the 50% effective concentration (EC50) fell in the range of 100 to 1000 nM.

Turning to `COc1cc2c(cc1-c1cccc(C(=O)O)c1)S(=O)(=O)N1Cc3ccccc3C1CN2c1ccccc1` (centres unmarked) [Example 16], the EC50 fell in the range of 100 to 1000 nM.

Turning to `CN1[C@H](C2CCCCC2)CN(c2ccccc2)c2cc(Cl)c(-c3cc(C(=O)O)ccc3F)cc2S1(=O)=O` [Example 150, (R)-3-(7-chloro-3-cyclohexyl-2-methyl-1,1-dioxido-5-phenyl-2,3,4,5-tetrahydrobenzo[f][1,2,5]thiadiazepin-8-yl)-4-fluorobenzoic acid], the EC50 was under 100 nM.

Consider `CN1[C@H](C2CCCCC2)CN(c2cncnc2)c2cc(Cl)c(-c3ccc(F)c(C(=O)O)c3)cc2S1(=O)=O` [Example 286], for which the EC50 lay within 100 to 1000 nM.

`CN1[C@H](C2CCCCC2)CN(c2ccccc2)c2cc(Cl)c(-c3ccnc(C(=O)O)c3)cc2S1(=O)=O` [Example 137, (R)-4-(7-chloro-3-cyclohexyl-2-methyl-1,1-dioxido-5-phenyl-2,3,4,5-tetrahydrobenzo[f][1,2,5]thiadiazepin-8-yl)picolinic acid]: the EC50 was in the range of 100 to 1000 nM.

In the case of `CSc1cc2c(cc1-c1cc(C)c(C(=O)O)s1)S(=O)(=O)N(C)[C@H](C1CCCCC1)CN2c1ccccc1` [Example 562, (R)-5-(3-cyclohexyl-2-methyl-7-(methylthio)-1,1-dioxido-5-phenyl-2,3,4,5-tetrahydrobenzo[f][1,2,5]thiadiazepin-8-yl)-3-methylthiophene-2-carboxylic acid], the EC50 was under 100 nM.

Regarding `CN1[C@H](C2CCCCC2)CN(c2ccccc2)c2cc(O[C@H]3C[C@@H](C#N)C3)c(-c3ccc(F)c(C(=O)O)c3)cc2S1(=O)=O` [Example 382], the 50% effective concentration (EC50) is under 100 nM.

As to `CN1[C@H](C2CCCCC2)CN(c2ccccc2)c2cc(Cl)c(-c3cccc(C(=O)O)c3F)cc2S1(=O)=O` [Example 149, (R)-3-(7-chloro-3-cyclohexyl-2-methyl-1,1-dioxido-5-phenyl-2,3,4,5-tetrahydrobenzo[f][1,2,5]thiadiazepin-8-yl)-2-fluorobenzoic acid], the EC50 is under 100 nM.

On to `CN1[C@H](CBr)CN(c2ccccc2)c2cc(Cl)c(-c3ccc(F)c(C(=O)O)c3)cc2S1(=O)=O` [Example 107, (S)-5-(3-(bromomethyl)-7-chloro-2-methyl-1,1-dioxido-5-phenyl-2,3,4,5-tetrahydrobenzo[f][1,2,5]thiadiazepin-8-yl)-2-fluorobenzoic acid], for which the concentration for a half-maximal effect (EC50) is over 1000 nM.

With `CN1[C@H](C2CCCCC2)CN(c2ccccc2)c2cc(OC3CCN(C(=O)OC(C)(C)C)CC3)c(-c3ccc(F)c(C(=O)O)c3)cc2S1(=O)=O` [Example 393, (R)-5-(7-((1-(tert-butoxycarbonyl)piperidin-4-yl)oxy)-3-cyclohexyl-2-methyl-1,1-dioxido-5-phenyl-2,3,4,5-tetrahydrobenzo[f][1,2,5]thiadiazepin-8-yl)-2-fluorobenzoic acid], the EC50 is under 100 nM.

For `CC(C)C[C@@H]1CN(c2ccccc2)c2cc(O[C@@H]3C[C@H](C)CCC3C(C)C)c(-c3ccc(F)c(C(=O)O)c3)cc2S(=O)(=O)N1C` (some centres unmarked) [Example 442], the EC50 is under 100 nM.

Consider `COCCOc1cc2c(cc1-c1cc(NC(=O)OCC3CC(F)(F)C3)c(C(=O)O)s1)S(=O)(=O)N(C)[C@H](C1CCCCC1)CN2c1ccccc1` [Example 519], for which the EC50 is under 100 nM.

On to `CC(C)OC(=O)Nc1cc(-c2cc3c(cc2Cl)N(c2ccccc2)C[C@@H](C2CCCCC2)N(C)S3(=O)=O)sc1C(=O)O` [Example 248], for which the EC50 was under 100 nM.

With `CN1[C@H](C2CCCCC2)CN(c2ccc(F)cc2)c2cc(Cl)c(-c3ccc(F)c(C(=O)O)c3)cc2S1(=O)=O` [Example 294], the concentration for a half-maximal effect (EC50) was 100 to 1000 nM.

For the compound `CN1[C@H](C2CCCCC2)CN(c2ccccc2)c2cc(C3CCN(C(=O)OC(C)(C)C)CC3)c(-c3ccc(F)c(C(=O)O)c3)cc2S1(=O)=O` [Example 590], the 50% effective concentration (EC50) was 100 to 1000 nM.

Consider `CO[C@H]1C[C@H](Oc2cc3c(cc2-c2ccc(F)c(C(=O)O)c2)S(=O)(=O)N(C)[C@H](C2CCCCC2)CN3c2ccccc2)C1` [Example 378], for which the EC50 is 100 to 1000 nM.

Consider `CC(C)CC1CN(c2ccccc2)c2cc(Cl)c(-c3cncc(C(=O)O)c3)cc2S(=O)(=O)N1C` (centres unmarked) [Example 35], for which the EC50 is 100 to 1000 nM.

`Cc1nc(COc2cc3c(cc2-c2cc(F)c(C(=O)O)s2)S(=O)(=O)N(C)[C@H](C2CCCCC2)CN3c2ccccc2)sc1C` [Example 500]: the EC50 was under 100 nM.

In the case of `CCCC[C@@H]1CN(c2ccccc2)c2cc(C)c(-c3ccc(Cl)c(C(=O)O)c3)cc2S(=O)(=O)N1C` [Example 567], the EC50 lay within 100 to 1000 nM.

With `CN1C(CC2CCCC2)CN(c2ccccc2)c2cc(Cl)c(-c3ccc(F)c(C(=O)O)c3)cc2S1(=O)=O` (centres unmarked) [Example 77], the EC50 fell in the range of 100 to 1000 nM.

With `CN1[C@H](C2CCC2)CN(c2ccccc2)c2cc(Oc3ccccc3F)c(-c3ccc(F)c(C(=O)O)c3)cc2S1(=O)=O` [Example 463], the EC50 was under 100 nM.

Regarding `CCCCCCCCCCOc1cc2c(cc1-c1ccc(F)c(C(=O)O)c1)S(=O)(=O)N(C)[C@H](C1CCCCC1)CN2c1ccccc1` [Example 354], the 50% effective concentration (EC50) is 100 to 1000 nM.

With `CN1[C@H](C2CCCCC2)CN(c2ccccc2)c2cc(C34CC(C3)C4)c(-c3ccc(F)c(C(=O)O)c3)cc2S1(=O)=O` [Example 587], the EC50 fell in the range of 100 to 1000 nM.

Consider `CN1[C@H](C2CCCCC2)CN(c2ccccc2)c2cc(Cl)c(-c3cc(NC(=O)OCC(C)(F)F)c(C(=O)O)s3)cc2S1(=O)=O` [Example 244], for which the EC50 was under 100 nM.

Take `CN1[C@H](C2CCCCC2)CN(c2ccccc2)c2cc(Cl)c(-c3ccc(Cl)c(S(N)(=O)=O)c3)cc2S1(=O)=O` [Example 200]: the concentration giving a half-maximal response (EC50) is 100 to 1000 nM.

On to `CO[C@H](C)COC(=O)Nc1cc(-c2cc3c(cc2Cl)N(c2ccccc2)C[C@@H](C2CCCCC2)N(C)S3(=O)=O)sc1C(=O)O` [Example 259], for which the EC50 was under 100 nM.

`CN1[C@H](C2CC(F)(F)C2)CN(c2ccccc2)c2cc(Cl)c(-c3ccc(F)c(C(=O)O)c3)cc2S1(=O)=O` [Example 30]: the EC50 was 100 to 1000 nM.

`CN1[C@H](C2CCCCC2)CN(c2ccccc2)c2cc(OCC3CCN(C(=O)OC(C)(C)C)CC3)c(-c3ccc(F)c(C(=O)O)c3)cc2S1(=O)=O` [Example 366]: the EC50 was under 100 nM.

Consider `CN1[C@H](C2CCCCC2)CN(c2ccccc2)c2cc(Oc3cccnc3)c(-c3ccc(F)c(C(=O)O)c3)cc2S1(=O)=O` [Example 415], for which the EC50 is 100 to 1000 nM.

As for `COCCOc1cc2c(cc1-c1cc(NC(=O)OC(C)(C)C)c(C(=O)O)s1)S(=O)(=O)N(C)[C@H](C1CCCCC1)CN2c1ccccc1` [Example 515, (R)-3-((tert-butoxycarbonyl)amino)-5-(3-cyclohexyl-7-(2-methoxyethoxy)-2-methyl-1,1-dioxido-5-phenyl-2,3,4,5-tetrahydrobenzo[f][1,2,5]thiadiazepin-8-yl)thiophene-2-carboxylic acid], the concentration giving a half-maximal response (EC50) was under 100 nM.

Regarding `O=C(O)c1cccc(-c2cc3c(cc2F)N(c2ccccc2)C[C@H]2C[C@@H](C(F)(F)F)CN2S3(=O)=O)c1` [Example 9], the EC50 was 100 to 1000 nM.

With `COc1c(F)cccc1Oc1cc2c(cc1-c1ccc(F)c(C(=O)O)c1)S(=O)(=O)N(C)[C@H](C1CCCCC1)CN2c1ccccc1` [Example 407], the EC50 is under 100 nM.

For the compound `CC(C)[C@@H]1CN(c2ccccc2)c2cc(Cl)c(-c3ccc(Cl)c(C(=O)O)c3)cc2S(=O)(=O)N1C` [Example 62], the EC50 was under 100 nM.

For `CN1[C@H](CN2CCCCC2)CN(c2ccccc2)c2cc(Cl)c(-c3ccc(F)c(C(=O)O)c3)cc2S1(=O)=O` [Example 108, (R)-5-(7-chloro-2-methyl-1,1-dioxido-5-phenyl-3-(piperidin-1-ylmethyl)-2,3,4,5-tetrahydrobenzo[f][1,2,5]thiadiazepin-8-yl)-2-fluorobenzoic acid], the EC50 is over 1000 nM.

With `CCC1CN(c2ccccc2)c2cc(Cl)c(-c3ccc(F)c(C(=O)O)c3)cc2S(=O)(=O)N1C` (centres unmarked) [Example 45], the EC50 was over 1000 nM.

As for `C[C@H](OC(C)(C)C)[C@@H]1CN(c2ccccc2)c2cc(Cl)c(-c3ccc(F)c(C(=O)O)c3)cc2S(=O)(=O)N1C` [Example 91], the concentration for a half-maximal effect (EC50) is over 1000 nM.

Turning to `CC(C)C[C@@H]1CN(c2ccccc2)c2cc(C3CCN(C(=O)OC(C)(C)C)CC3)c(-c3ccc(F)c(C(=O)O)c3)cc2S(=O)(=O)N1C` [Example 592], the EC50 was in the range of 100 to 1000 nM.

The term EC50 denotes the concentration needed to bring the measured effect to its halfway point.
